The source of these data is PMC12348844, “Anti-Trypanosoma cruzi Potential of New Pyrazole-Imidazoline Derivatives” (Molecules, 2025).

Where two headings read alike, the source gives them in different places.

The test system of data set [1] is T. cruzi Dm28c-Luc trypomastigotes. The data set is described as follows: Anti-T. cruzi in vitro assay, trypomastigotes (luminescence). It counts as cell-based. To be noted: Trypanosoma cruzi, 24 h, mean ± SD. How it is done:
(§1) The genetically modified Trypanosoma cruzi, clone Dm28c (TcI), expressing luciferase (Dm28c-Luc), was kindly provided by Dr. Cristina Henriques from Oswaldo Cruz Institute—Fiocruz. The parasites were maintained using Vero cell cultures in RPMI 1640 medium enriched with 10% FBS. At 4 days post-infection (dpi), the trypomastigotes released into the culture supernatant were harvested, subjected to centrifugation at 800× g for 20 min at 4 °C, and quantified with a Neubauer chamber. The isolated trypomastigotes were subsequently used for phenotypic screening, drug efficacy assessments employing a 3D cardiac model, washout experiments to evaluate reversibility, drug combination studies, and enzymatic assays.
Drug susceptibility assays were performed on T. cruzi Dm28c-Luc, a genetically engineered parasite expressing luciferase. The drug screening used both trypomastigotes and intracellular amastigotes. Trypomastigotes (1 × 10^6 parasites/well) were added to white 96-well plates with clear bottoms. […] The luminescence was measured using a Glomax Multi-Detection plate reader (Promega Corporation, Madison, WI, USA).

Data set [2] relates to intracellular amastigotes of T. cruzi. The data set is described as follows: Drug combination with Bz, fixed-ratio isobologram, intracellular amastigotes. It counts as cell-based. To be noted: Trypanosoma cruzi; proportion 1k:Bz 0:5, 72 h; read-out: IC50 (Mean ± DP) in combination assay. How it is done: The isobologram approach assessed the interaction between Bz and the promising candidate in intracellular amastigotes of T. cruzi. Vero cell cultures infected with T. cruzi (Dm28c-Luc) were treated for 72 h with various concentrations of combinations of Bz and the promising candidate, specifically at ratios of 5:0; 4:1; 3:2; 2:3; 1:4 and 0:5. The maximum concentration of each compound was established based on their IC50 values, ensuring both reached the fourth dilution in the serial dilution setup (1:3), culminating in a total of seven dilutions. After 72 h of treatment, parasite viability was measured by luminescence in a Glomax Multi-Detection plate reader (Promega Corporation, Madison, WI, USA) after incubation with luciferin. The IC50 values of each treatment combination were calculated individually, and the fractional inhibitory concentration index (FICI) was derived using the formula FICI = IC50 of the combination/IC50 of the compound alone. The overall FICI (ΣFICI) was calculated by summing the FICIs for both compounds in each combination group, while the average ΣFICI (xΣFICI) represented the overall mean across all combination groups. The xΣFICI values were then employed to classify the interaction as synergistic (xΣFICI ≤ 0.5), additive (0.5 < xΣFICI < 4), or antagonistic (xΣFICI > 4). […]

Data set [3] relates to T. cruzi Dm28c-Luc intracellular amastigotes. The data set is described as follows: Anti-T. cruzi in vitro assay, intracellular amastigotes in Vero cells (luminescence). It counts as cell-based, Trypanosoma cruzi. The conditions noted are these: Trypanosoma cruzi. The protocol:
as §1
To evaluate the effect of pyrazole-imidazoline derivatives against intracellular amastigotes, Vero cells (1.5 × 10^4 cells/well) were cultured in a white 96-well plate with a clear bottom and subsequently infected with T. cruzi Dm28c-Luc at a 10:1 parasite-to-host cell ratio for 24 h. […] Parasite viability was measured by luminescence following the addition of luciferin (300 µg/mL). Background measurements (non-infected cultures incubated with luciferin, as well as luciferin-only controls) were performed to ensure the signal specifically originates from viable parasites. The IC50 and IC90 values, denoting the concentrations that achieve 50% and 90% reductions in viable parasites, respectively, were calculated using GraphPad Prism 8.2.1 software. Additionally, the selectivity index (SI) was calculated as the cytotoxic concentration (CC50) ratio in mammalian cells to the IC50 against T. cruzi, providing insight into the therapeutic window. Potency against intracellular amastigotes was evaluated using the formula 6—Log10 (IC50).

Data set [4] is described as follows: Cytotoxicity assay, Vero cells (CellTiter-Glo). To be noted: African green monkey, mean ± SD. In kind it is cell-based. The protocol: Vero cells, obtained from the Rio de Janeiro Cell Bank (BCRT code 0245) and maintained through weekly subculturing with a dissociation solution containing 0.25% trypsin-EDTA, initiated once the monolayer reached an 80–100% confluence. Following harvesting, the cells were washed and resuspended in RPMI 1640 medium enriched with 10% fetal bovine serum (FBS). Cultures were maintained at 37 °C in a 5% CO2-humidified incubator. These cultures were used for drug screening assays and for producing culture-derived trypomastigotes of T. cruzi.
Cytotoxicity assays were performed using Vero cells, which were seeded at a density of 1.5 × 10^4 cells per well in white 96-well plates with clear bottoms. Following a 24 h adhesion period, the cultures were incubated at 37 °C in a 5% CO2 atmosphere. […] After 72 h of incubation, cell viability was assessed by adding CellTiter-Glo reagent (Promega Corporation, Madison, WI, USA), which induces cell lysis and reacts with the released ATP to produce luminescence. The resulting luminescence was measured using a Glomax Multi-Detection plate reader (Promega Corporation, Madison, WI, USA). The half-maximal inhibitory concentration (CC50) for cell viability was then calculated using GraphPad Prism software version 8.2.1.

Data set [5] concerns T. cruzi (Dm28c-Luc). The data set is described as follows: Reversibility (washout) assay in T. cruzi-infected Vero cells. In kind it is cell-based, Trypanosoma cruzi. How it is done: After treatment, the cultures were thoroughly washed, and parasite recrudescence was evaluated over an extended period of 10 days in RPMI medium supplemented with 10% fetal bovine serum (FBS). Culture supernatants were collected at intervals, and the luminescence signal indicative of trypomastigote release was assessed using a Glomax Multi-Detection plate reader (Promega Corporation, Madison, WI, USA) following the addition of luciferin every 2–3 days. At the experiment’s conclusion, the infection profile of the monolayer was also examined. Cells were fixed with PFA for 20 min at 4 °C, then stained with DAPI for microscopy analysis. Luminescence data were expressed in arbitrary luminescent units (A.L.U), and fluorescence images were acquired using the ImageXpress Micro XLS high-content screening (HCS) system (Molecular Devices, Sunnyvale, CA, USA).

Consider `O=C(Cn1ccnc1[N+](=O)[O-])NCc1ccccc1` [Bz, Benznidazole, reference compound], for which the IC50 in data set [1] is 20.5 ± 1.8 µM; in data set [2], 2300 ± 70 nM; in data set [3] (Vero, intracellular amastigotes, 6 − Log10(IC50), read-out: pIC50 (potency) (converted)) it was 2510 nM; in data set [3] (72 h, Dm28c-Luc in Vero cells, mean ± SD, read-out: Intracellular Amastigotes IC50), 2200 ± 400 nM. Besides, the IC90 in data set [1] was above 100 µM; in data set [3] (72 h, Dm28c-Luc in Vero cells, mean ± SD), 10.4 ± 0.5 µM. The compound further returned a CC50 at 72 h in data set [4] above 500 µM. Also, the “reduction of parasite load of cell monolayer at 21 dpi” value in data set [5] (100 µM, 10 days treatment + 10 days washout) stood at 98.4%. In addition, in data set [5] (100 µM, untreated 5 × 10^5 A.L.U), the “parasite load of cell monolayer at 21 dpi (luminescence)” value is 8 × 10^3 A.L.U. Further, the “sterility of cultures in reversibility assay” value in data set [5] (10 days treatment, tested conditions) is given as “failed to achieve sterility”.
